According to the NIST ThermoML archive (doi:10.1021/je800046k):
± gives the expanded uncertainty stated by the source.

Assay: xn = mol fraction of the nth substance listed
Conditions: for surface tension liquid-gas: Pendant drop shape; for mass density: 101 kPa, Liquid

CC(=O)OCC(C)C [2-methylpropyl ethanoate] + Cc1ccc(C)c(C)c1
Conditions | mass density [kg/m3] | surface tension liquid-gas [mN/m]
298.15 K, x1 = 0.0494 | 871.36 ± 0.56 | 28.85 ± 0.33
298.15 K, x1 = 0.0992 | 871.02 ± 0.58 | 28.38 ± 0.32
298.15 K, x1 = 0.1493 | 870.68 ± 0.61 | 27.89 ± 0.32
298.15 K, x1 = 0.2002 | 870.35 ± 0.63 | 27.4 ± 0.32
298.15 K, x1 = 0.2498 | 870.03 ± 0.66 | 26.98 ± 0.32
298.15 K, x1 = 0.2989 | 869.71 ± 0.68 | 26.61 ± 0.32
298.15 K, x1 = 0.3495 | 869.39 ± 0.71 | 26.25 ± 0.32
298.15 K, x1 = 0.3997 | 869.08 ± 0.74 | 25.92 ± 0.32
298.15 K, x1 = 0.4505 | 868.77 ± 0.77 | 25.59 ± 0.32
298.15 K, x1 = 0.4991 | 868.48 ± 0.81 | 25.3 ± 0.33
298.15 K, x1 = 0.5504 | 868.19 ± 0.84 | 25.03 ± 0.33
298.15 K, x1 = 0.6 | 867.92 ± 0.88 | 24.78 ± 0.33
298.15 K, x1 = 0.6496 | 867.65 ± 0.91 | 24.54 ± 0.33
298.15 K, x1 = 0.7006 | 867.37 ± 0.95 | 24.32 ± 0.33
298.15 K, x1 = 0.75 | 867.13 ± 0.99 | 24.13 ± 0.33
298.15 K, x1 = 0.8002 | 866.88 ± 1 | 23.91 ± 0.34
298.15 K, x1 = 0.8499 | 866.67 ± 1.1 | 23.74 ± 0.34
298.15 K, x1 = 0.9006 | 866.45 ± 1.1 | 23.55 ± 0.34
298.15 K, x1 = 0.9477 | 866.27 ± 1.2 | 23.36 ± 0.34
298.15 K, x1 = 1 | 866.06 ± 1.2 | 23.15 ± 0.35
308.15 K, x1 = 0.0495 | 863.22 ± 0.58 | 27.75 ± 0.32
308.15 K, x1 = 0.0992 | 862.76 ± 0.6 | 27.26 ± 0.31
308.15 K, x1 = 0.149 | 862.3 ± 0.62 | 26.78 ± 0.31
308.15 K, x1 = 0.1998 | 861.84 ± 0.64 | 26.31 ± 0.31
308.15 K, x1 = 0.25 | 861.39 ± 0.67 | 25.89 ± 0.31
308.15 K, x1 = 0.2995 | 860.95 ± 0.7 | 25.52 ± 0.31
308.15 K, x1 = 0.3497 | 860.51 ± 0.72 | 25.17 ± 0.31
308.15 K, x1 = 0.4004 | 860.07 ± 0.75 | 24.83 ± 0.31
308.15 K, x1 = 0.4501 | 859.64 ± 0.78 | 24.52 ± 0.31
308.15 K, x1 = 0.4995 | 859.23 ± 0.82 | 24.21 ± 0.31
308.15 K, x1 = 0.5505 | 858.81 ± 0.85 | 23.94 ± 0.32
308.15 K, x1 = 0.5994 | 858.42 ± 0.88 | 23.69 ± 0.32
308.15 K, x1 = 0.65 | 858.02 ± 0.92 | 23.48 ± 0.32
308.15 K, x1 = 0.6987 | 857.63 ± 0.96 | 23.25 ± 0.32
308.15 K, x1 = 0.7505 | 857.25 ± 1 | 23.04 ± 0.32
308.15 K, x1 = 0.7986 | 856.89 ± 1 | 22.82 ± 0.32
308.15 K, x1 = 0.8497 | 856.54 ± 1.1 | 22.67 ± 0.33
308.15 K, x1 = 0.8999 | 856.19 ± 1.1 | 22.48 ± 0.33
308.15 K, x1 = 0.9491 | 855.87 ± 1.2 | 22.32 ± 0.33
308.15 K, x1 = 1 | 855.51 ± 1.2 | 22.16 ± 0.33
313.15 K, x1 = 0.0506 | 859.06 ± 0.58 | 27.18 ± 0.31
313.15 K, x1 = 0.1002 | 858.55 ± 0.6 | 26.67 ± 0.31
313.15 K, x1 = 0.1499 | 858.03 ± 0.63 | 26.15 ± 0.31
313.15 K, x1 = 0.2001 | 857.52 ± 0.65 | 25.7 ± 0.31
313.15 K, x1 = 0.2505 | 857 ± 0.68 | 25.28 ± 0.31
313.15 K, x1 = 0.3001 | 856.51 ± 0.7 | 24.91 ± 0.31
313.15 K, x1 = 0.3502 | 856.01 ± 0.73 | 24.59 ± 0.31
313.15 K, x1 = 0.3995 | 855.53 ± 0.76 | 24.26 ± 0.31
313.15 K, x1 = 0.4501 | 855.03 ± 0.79 | 23.95 ± 0.31
313.15 K, x1 = 0.5001 | 854.56 ± 0.82 | 23.62 ± 0.31
313.15 K, x1 = 0.5503 | 854.08 ± 0.86 | 23.36 ± 0.31
313.15 K, x1 = 0.6007 | 853.61 ± 0.89 | 23.08 ± 0.31
313.15 K, x1 = 0.6492 | 853.16 ± 0.93 | 22.9 ± 0.31
313.15 K, x1 = 0.6997 | 852.71 ± 0.96 | 22.65 ± 0.31
313.15 K, x1 = 0.75 | 852.27 ± 1 | 22.46 ± 0.32
313.15 K, x1 = 0.801 | 851.82 ± 1 | 22.2 ± 0.32
313.15 K, x1 = 0.848 | 851.43 ± 1.1 | 22.09 ± 0.32
313.15 K, x1 = 0.8998 | 851.01 ± 1.1 | 21.89 ± 0.32
313.15 K, x1 = 0.9498 | 850.6 ± 1.2 | 21.77 ± 0.32
313.15 K, x1 = 1 | 850.16 ± 1.2 | 21.64 ± 0.33
